Measured values reported in US20110070232A1, “Combination Therapy with an Antitumor Alkaloid” (Pharma Mar, S.A., priority 2008, published 2011).
Like-named read-outs stand apart in the source and are kept apart here.

What was measured:
Type in all cases: in vivo, mice
Hs746T tumors = tested on: Hs746T tumors
Method: (§1) Female athymic nude mice (Harlan Sprague Dawley, Madison, Wis.) were utilized for all experiments. Animals were housed in ventilated rack caging with food and water ad libitum. The mice were acclimated for at least 5 days prior to tumor implantation with a tumor cell suspension.
The tumor model used in these studies was Hs746T cell line, which was obtained from the ATCC (Manassas, Va.).
(§2) Treatments were initiated on DPI 14.
(§3) Tumor size measurements were recorded twice weekly from the treatment initiation until the termination of the study.
(§4) Mean, standard deviation and standard error of the mean were determined for tumor volume for all animal groups at all assessments. Student's t test was performed on tumor volumes at each measurement day, including at the end of the study, to determine whether there were any statistically significant differences between combination treatment groups and single monotherapy treatment groups.

PLC/PRF/5 tumors = tested on: PLC/PRF/5 tumors
Method: as §1
The tumor model used in these studies was PLC/PRF/5 cell line, which was obtained from the ATCC (Manassas, Va.).
PLC/PRF/5 were grown in Eagle's minimum essential medium supplemented with 10% FBS and 1% L-glutamine. Each animal was implanted SC on the right flank, using a 13G trochar and 1 mL syringe, with 5×10^6 PLC/PRF/5 cells in a 0.2 mL suspension of 50% Matrigel and 50% serum free MEM medium, without antibiotics. Bacterial cultures were performed on aliquots of the cells prepared for implantation.
as §2, §3, §4

H-Meso-1 tumors = settings: G2 PM00104 0.9 mg/kg/day IV
Method: Female athymic nude mice (Harlan Sprague Dawley, Madison, Wis.) were utilized for all experiments. Animals were housed in ventilated rack caging with food and water ad libitum. The mice were acclimated for at least 5 days prior to tumor implantation.
The tumor model used in this study was H-Meso-1 cell line which is a human mesothelioma cell line obtained from the DTP, DCTD tumor repository. […] Cells were implanted SC into study mice using a 1 ml syringe with a 13G trocar: 5×10^6 cells/mouse in 0.2 ml 50% Matrigel/50% RPMI medium of H-Meso-1 without serum or antibiotics. Bacterial culture was taken on cells used to implant the study.
Treatments were initiated on DPI 6.
Tumor size measurements were recorded 2-3 times/week from the treatment initiation until the termination of the study.
as §4

[1] = PM00104 0.90 IV, docetaxel 16 IP, oxaliplatin 8 IP mg/kg/day (G2, G3, G5, G7, G9), DPI 14, 21, 28
[2] = day 14, PM00104 0.90, sorafenib 60 mg/kg/day
[3] = day 18, PM00104 0.90, sorafenib 60 mg/kg/day
[4] = day 22, PM00104 0.90, sorafenib 60 mg/kg/day
[5] = day 25, PM00104 0.90, sorafenib 60 mg/kg/day
[6] = day 28, PM00104 0.90, sorafenib 60 mg/kg/day
[7] = day 32, PM00104 0.90, sorafenib 60 mg/kg/day
[8] = day 35, PM00104 0.90, sorafenib 60 mg/kg/day
[9] = day 39, PM00104 0.90, sorafenib 60 mg/kg/day
[10] = day 42, PM00104 0.90, sorafenib 60 mg/kg/day

COc1c(C)cc2c(c1O)[C@@H]1[C@@H]3Cc4c(OC(C)=O)c(C)c5c(c4[C@H](CNC(=O)/C=C/c4cccc(C(F)(F)F)c4)N3[C@@H](O)[C@H](C2)N1C)OCO5 [PM00104]
% T/C on day 14 (Hs746T tumors; [1]): 99.9%
% T/C on day 19 (Hs746T tumors; [1]): 54.9%
% T/C on day 22 (Hs746T tumors; [1]): 40.8%
% T/C on day 26 (Hs746T tumors; [1]): 39.5%
% T/C on day 29 (Hs746T tumors; [1]): 30.4%
% T/C on day 32 (Hs746T tumors; [1]): 47.6%
% T/C on day 39 (Hs746T tumors; [1]): 80.3%
% Inhibition (Hs746T tumors; day 14, PM00104 0.9 and docetaxel 8 mg/kg/day): 0.1%
% Inhibition (Hs746T tumors; day 14, PM00104 0.9 and docetaxel 16 mg/kg/day): 0.1%
% Inhibition (Hs746T tumors; day 14, PM00104 0.9 and oxaliplatin 4 mg/kg/day): 0.1%
% Inhibition (Hs746T tumors; day 14, PM00104 0.9 and oxaliplatin 8 mg/kg/day): 0.1%
% Inhibition (Hs746T tumors; day 19, PM00104 0.9 and docetaxel 8 mg/kg/day): 45.1%
% Inhibition (Hs746T tumors; day 19, PM00104 0.9 and docetaxel 16 mg/kg/day): 45.1%
% Inhibition (Hs746T tumors; day 19, PM00104 0.9 and oxaliplatin 4 mg/kg/day): 45.1%
% Inhibition (Hs746T tumors; day 19, PM00104 0.9 and oxaliplatin 8 mg/kg/day): 45.1%
% Inhibition (Hs746T tumors; day 22, PM00104 0.9 and docetaxel 8 mg/kg/day): 59.2%
% Inhibition (Hs746T tumors; day 22, PM00104 0.9 and docetaxel 16 mg/kg/day): 59.2%
% Inhibition (Hs746T tumors; day 22, PM00104 0.9 and oxaliplatin 4 mg/kg/day): 59.2%
% Inhibition (Hs746T tumors; day 22, PM00104 0.9 and oxaliplatin 8 mg/kg/day): 59.2%
% Inhibition (Hs746T tumors; day 26, PM00104 0.9 and docetaxel 8 mg/kg/day): 60.5%
% Inhibition (Hs746T tumors; day 26, PM00104 0.9 and docetaxel 16 mg/kg/day): 60.5%
% Inhibition (Hs746T tumors; day 26, PM00104 0.9 and oxaliplatin 4 mg/kg/day): 60.5%
% Inhibition (Hs746T tumors; day 26, PM00104 0.9 and oxaliplatin 8 mg/kg/day): 60.5%
% Inhibition (Hs746T tumors; day 29, PM00104 0.9 and docetaxel 8 mg/kg/day): 69.6%
% Inhibition (Hs746T tumors; day 29, PM00104 0.9 and docetaxel 16 mg/kg/day): 69.6%
% Inhibition (Hs746T tumors; day 29, PM00104 0.9 and oxaliplatin 4 mg/kg/day): 69.6%
% Inhibition (Hs746T tumors; day 29, PM00104 0.9 and oxaliplatin 8 mg/kg/day): 69.6%
% Inhibition (Hs746T tumors; day 32, PM00104 0.9 and docetaxel 8 mg/kg/day): 52.4%
% Inhibition (Hs746T tumors; day 32, PM00104 0.9 and docetaxel 16 mg/kg/day): 52.4%
% Inhibition (Hs746T tumors; day 32, PM00104 0.9 and oxaliplatin 4 mg/kg/day): 52.4%
% Inhibition (Hs746T tumors; day 32, PM00104 0.9 and oxaliplatin 8 mg/kg/day): 52.4%
% Inhibition (Hs746T tumors; day 39, PM00104 0.9 and docetaxel 8 mg/kg/day): 19.7%
% Inhibition (Hs746T tumors; day 39, PM00104 0.9 and docetaxel 16 mg/kg/day): 19.7%
% Inhibition (Hs746T tumors; day 39, PM00104 0.9 and oxaliplatin 4 mg/kg/day): 19.7%
% Inhibition (Hs746T tumors; day 39, PM00104 0.9 and oxaliplatin 8 mg/kg/day): 19.7%
% T/C (PLC/PRF/5 tumors; day 14, PM00104 0.45, sorafenib 60 mg/kg/day): 106.5%
% Inhibition (PLC/PRF/5 tumors; [2]): −0.8%
% T/C (PLC/PRF/5 tumors; [2]): 100.8%
% T/C (PLC/PRF/5 tumors; day 18, PM00104 0.45, sorafenib 60 mg/kg/day): 71.1%
% Inhibition (PLC/PRF/5 tumors; [3]): 21.2%
% T/C (PLC/PRF/5 tumors; [3]): 78.8%
% T/C (PLC/PRF/5 tumors; day 22, PM00104 0.45, sorafenib 60 mg/kg/day): 73.5%
% Inhibition (PLC/PRF/5 tumors; [4]): 33.3%
% T/C (PLC/PRF/5 tumors; [4]): 66.7%
% T/C (PLC/PRF/5 tumors; day 25, PM00104 0.45, sorafenib 60 mg/kg/day): 80.4%
% Inhibition (PLC/PRF/5 tumors; [5]): 29.0%
% T/C (PLC/PRF/5 tumors; [5]): 71.0%
% T/C (PLC/PRF/5 tumors; day 28, PM00104 0.45, sorafenib 60 mg/kg/day): 67.3%
% Inhibition (PLC/PRF/5 tumors; [6]): 47.1%
% T/C (PLC/PRF/5 tumors; [6]): 52.9%
% T/C (PLC/PRF/5 tumors; day 32, PM00104 0.45, sorafenib 60 mg/kg/day): 79.7%
% Inhibition (PLC/PRF/5 tumors; [7]): 54.4%
% T/C (PLC/PRF/5 tumors; [7]): 45.6%
% T/C (PLC/PRF/5 tumors; day 35, PM00104 0.45, sorafenib 60 mg/kg/day): 71.7%
% Inhibition (PLC/PRF/5 tumors; [8]): 45.1%
% T/C (PLC/PRF/5 tumors; [8]): 54.9%
% T/C (PLC/PRF/5 tumors; day 39, PM00104 0.45, sorafenib 60 mg/kg/day): 89.2%
% Inhibition (PLC/PRF/5 tumors; [9]): 22.9%
% T/C (PLC/PRF/5 tumors; [9]): 77.1%
% T/C (PLC/PRF/5 tumors; day 42, PM00104 0.45, sorafenib 60 mg/kg/day): 85.7%
% Inhibition (PLC/PRF/5 tumors; [10]): 29.9%
% T/C (PLC/PRF/5 tumors; [10]): 70.1%
% T/C on day 6 (H-Meso-1 tumors): 98.5%
% T/C on day 7 (H-Meso-1 tumors): 80.3%
% T/C on day 9 (H-Meso-1 tumors): 69.7%
% T/C on day 12 (H-Meso-1 tumors): 63.3%
% T/C on day 14 (H-Meso-1 tumors): 62.9%
% T/C on day 16 (H-Meso-1 tumors): 62.1%
% T/C on day 19 (H-Meso-1 tumors): 55.1%
% T/C on day 22 (H-Meso-1 tumors): 51.6%
% T/C on day 26 (H-Meso-1 tumors): 56.0%
% T/C on day 29 (H-Meso-1 tumors): 64.9%
% Inhibition (H-Meso-1 tumors; day 6): 1.5%
% Inhibition (H-Meso-1 tumors; day 7): 19.7%
% Inhibition (H-Meso-1 tumors; day 9): 30.3%
% Inhibition (H-Meso-1 tumors; day 12): 36.7%
% Inhibition (H-Meso-1 tumors; day 14): 37.1%
% Inhibition (H-Meso-1 tumors; day 16): 37.9%
% Inhibition (H-Meso-1 tumors; day 19): 44.9%
% Inhibition (H-Meso-1 tumors; day 22): 48.4%
% Inhibition (H-Meso-1 tumors; day 26): 44.0%
% Inhibition (H-Meso-1 tumors; day 29): 35.0%
